From patent US10703764B2, “Benzopiperazine compositions as BET bromodomain inhibitors” (FORMA Therapeutics, Inc., priority 2013, dated 2020) come the findings set out here.

The structures appear in SMILES notation.

One assay concerns the target T1, BRD4 BD1 (Homo sapiens, UniProt O60885).
T1 construct: made in house
The experiment in a line: AlphaScreen binding assay, BRD4 Bromodomain 1. An outline of the steps: (§1)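 Compound dilution series were mixed with His-tagged BRD4 bromodomain and biotinylated tetra-acetylated H4 (1-21) peptide at pH 7.3 (BD1 and peptide at 50 nM, BD2 and peptide at 100 nM). Donor and acceptor beads were then added, and plates were equilibrated at least 1 h before reading. IC50 values were fitted with a four-parameter logistic model.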
Background: In Alpha technology, singlet oxygen from a donor bead excites a nearby acceptor bead.

The next assay concerns the target T2, BRD4 BD2 (Homo sapiens, UniProt O60885).
T2 construct: made in house
Briefly: AlphaScreen binding assay, BRD4 Bromodomain 2. The gist of the method: as §1

For the next assay, the system named is MV4-11 cells. The experiment in a line: Oncology cell growth assay (3-day proliferation, CellTiter-Glo). Type of assay: cell-based. To be noted: Homo sapiens, MV4-11, 72 h, AML cell line MV4-11, 72 hours, compounds grouped by IC50 range, read-out: MV4-11 IC50 (inhibition of proliferation, gIC50). An outline of the steps: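 72 h, 37° C, 5% CO2; MV4-11, 3000 cells/well, RPMI 1640 + 10% FBS. Compound final 10, 3.3, 1.1, 0.37, 0.12, 0.041, 0.013, 0.0045 μM. Readout CellTiter-Glo luminescence; gIC50 by 4-parameter logistic fit, normalised to DMSO and no-cell background.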

As to `CC(C)OC(=O)N1C[C@H](C)N(C(=O)C2CC2)c2ccc(-c3ccc(CS(N)(=O)=O)cc3)cc21` [Example I-476], the results for the IC50 at BRD4 BD1, at BRD4 BD2 and with MV4-11 cells were 100 to 1000 nM, over 500 nM and over 500 nM, respectively.
With `CC(=O)N1c2ccc(-c3ccc(CS(N)(=O)=O)cc3)cc2N(C(=O)OC(C)C)C[C@@H]1C` [Example I-475], the IC50 on BRD4 BD1 was in the range of 100 to 1000 nM; at BRD4 BD2, 50 to 500 nM; in the assay with MV4-11 cells, 100 to 500 nM.
In the same order, the values of `CC(=O)N1c2ccc(-c3cnn(C4CC4)c3)cc2N(C(=O)Oc2ccc3ncccc3c2)C[C@@H]1C` [Example I-512] are under 100 nM, under 50 nM and under 100 nM.
As for `CC(=O)N1c2ccc(-c3cnn(CC4CCS(=O)(=O)CC4)c3)cc2N(C(=O)OC(C)C)C[C@@H]1C` [Example I-595], the IC50 on BRD4 BD1 lay in the range of 100 to 1000 nM; on BRD4 BD2, 50 to 500 nM; with MV4-11 cells it was 100 to 500 nM.
In the same order, the values of `CC(=O)N1c2ccc(-c3ccc(C(=O)N4CCSCC4)cc3)cc2N(C(=O)OC(C)C)C[C@@H]1C` [Example I-538] are 100 to 1000 nM, 50 to 500 nM and 100 to 500 nM.
In the same order, the values of `CC(=O)N1c2ccc(-c3cnn(CCO)c3)cc2N(C(=O)OC2CC(F)(F)C2)C[C@@H]1C` [Example I-27, (S)-3,3-difluorocyclobutyl 4-acetyl-7-(1-(2-hydroxyethyl)-1H-pyrazol-4-yl)-3-methyl-3,4-dihydroquinoxaline-1(2H)-carboxylate] are 100 to 1000 nM, 50 to 500 nM and 100 to 500 nM.
For `CC(C)OC(=O)N1C[C@H](C)N(C(=O)C2CC2)c2ccc(-c3cnn(CC4(CO)COC4)c3)cc21` [Example I-615], in that order: 100 to 1000 nM, 50 to 500 nM and 100 to 500 nM.
For `CC(=O)N1c2ccc(-c3cnn(C4COC4)c3)cc2N(C(=O)OC2CCCCC2)C[C@@H]1C` [Example I-86, (S)-cyclohexyl 4-acetyl-3-methyl-7-(1-(oxetan-3-yl)-1H-pyrazol-4-yl)-3,4-dihydroquinoxaline-1(2H)-carboxylate], the results for the IC50 at BRD4 BD1, on BRD4 BD2 and in the assay with MV4-11 cells were 100 to 1000 nM, 50 to 500 nM and under 100 nM, respectively.
Consider `CC(=O)N1c2ccc(-c3ccc(S(=O)(=O)C4CC4)cc3)cc2N(C(=O)OC(C)C)C[C@@H]1C` [Example I-1034], for which the values for the IC50 on BRD4 BD1, at BRD4 BD2 and with MV4-11 cells were 100 to 1000 nM, 50 to 500 nM and 100 to 500 nM, respectively.
`CC(=O)N1c2ccc(-c3cnn(C)c3)cc2N(C(=O)c2ccco2)C[C@@H]1C` [Example I-822]: the IC50 on BRD4 BD1 was 100 to 1000 nM; at BRD4 BD2 it was under 50 nM; in the assay on MV4-11 cells, 100 to 500 nM.
For `CC(=O)N1c2ccc(-c3cnn(C4CC4)c3)cc2N(c2nn(C)c3cccnc23)C[C@@H]1C` [Example I-187, 1-[(2S)-6-(1-cyclopropyl-1H-pyrazol-4-yl)-2-methyl-4-{1-methyl-1H-pyrazolo[4,3-b]pyridin-3-yl}-1,2,3,4-tetrahydroquinoxalin-1-yl]ethan-1-one], in that order: 1000 to 10000 nM, 50 to 500 nM and over 500 nM.
For `CC(=O)N1c2ccc(-c3ccc(S(=O)(=O)CC4CC4)cc3)cc2N(C(=O)C2CCC2)C[C@@H]1C` [Example I-1075], in that order: 1000 to 10000 nM, 50 to 500 nM and over 500 nM.
In the same order, the values of `CC(=O)N1c2ccc(-c3cnn(C4CNC4)c3)cc2N(C(=O)OC(C)C)C[C@@H]1C` [Example I-356] are 100 to 1000 nM, under 50 nM and 100 to 500 nM.
For `CCOC(=O)N1C[C@H](C)N(C(C)=O)c2ccc(-c3ccc(S(=O)(=O)NCCO)cc3)cc21` [Example I-1037], the IC50 on BRD4 BD1 lay in the range of 1000 to 10000 nM; on BRD4 BD2 it was 50 to 500 nM; in the assay on MV4-11 cells, 100 to 500 nM.
Consider `CC(=O)N1c2ccc(-c3cnn(CC4CCC4)c3)cc2N(C(=O)C2CC2)C[C@@H]1C` [Example I-656], for which the IC50 on BRD4 BD1 lay within 100 to 1000 nM; on BRD4 BD2 it was 50 to 500 nM; in the assay on MV4-11 cells, 100 to 500 nM.
In the same order, the values of `CC(=O)N1c2ccc(-c3cnc(N)cn3)cc2N(C(=O)OC(C)C)C[C@@H]1C` [Example I-471] are 100 to 1000 nM, 50 to 500 nM and 100 to 500 nM.
For `CC(=O)N1c2ccc(-c3cnn(C(C)(C)CO)c3)cc2N(C(=O)Oc2cccnc2)C[C@@H]1C` [Example I-1284], in that order: 100 to 1000 nM, 50 to 500 nM and 100 to 500 nM.
For `CC(=O)N1c2ccc(-c3cnn(CC(=O)N(C)C4CC4)c3)cc2N(C(=O)OC(C)C)C[C@@H]1C` [Example I-596], in that order: 100 to 1000 nM, under 50 nM and 100 to 500 nM.
Regarding `CC(=O)N1c2ccc(-c3cnn(Cc4cc(C)no4)c3)cc2N(C(=O)C2CC2)C[C@@H]1C` [Example I-149, (S)-1-(4-(cyclopropanecarbonyl)-2-methyl-6-(1-((3-methylisoxazol-5-yl)methyl)-1H-pyrazol-4-yl)-3,4-dihydroquinoxalin-1 (2H)-yl)ethanone], the IC50 at BRD4 BD1 fell in the range of 100 to 1000 nM; on BRD4 BD2, 50 to 500 nM; in the assay on MV4-11 cells, 100 to 500 nM.
Take `CC(=O)N1c2ccc(-c3cccc(NS(C)(=O)=O)c3)cc2N(C(=O)c2ccco2)C[C@@H]1C` [Example I-844]: the IC50 on BRD4 BD1 was 100 to 1000 nM; on BRD4 BD2, under 50 nM; with MV4-11 cells it was 100 to 500 nM.
For `CC(=O)N1c2ccc(-c3ccc(C(=O)N4CCCCC4)cc3)cc2N(C(=O)OC(C)C)C[C@@H]1C` [Example I-537], in that order: 100 to 1000 nM, 50 to 500 nM and 100 to 500 nM.
For `CCOC(=O)N1C[C@H](C)N(C(C)=O)c2ccc(-c3cccc(S(=O)(=O)NCCO)c3)cc21` [Example I-1110], in that order: 1000 to 10000 nM, 50 to 500 nM and 100 to 500 nM.
For `CC(C)OC(=O)N1C[C@H](C)N(C(=O)C2CC2)c2ccc(-c3cnn(CC4CC4)c3)cc21` [Example I-316], in that order: 100 to 1000 nM, 50 to 500 nM and 100 to 500 nM.
For the compound `CC(C)OC(=O)N1C[C@H](C)N(C(=O)C2CC2)c2ccc(-c3cnn(CCO)c3)cc21` [Example I-315], the figures for the IC50 at BRD4 BD1, at BRD4 BD2 and in the assay on MV4-11 cells were 100 to 1000 nM, 50 to 500 nM and 100 to 500 nM, respectively.
In the same order, the values of `COc1ccc(C#N)cc1OC(=O)N1C[C@H](C)N(C(C)=O)c2ccc(-c3cnn(C4CC4)c3)cc21` [Example I-526] are 100 to 1000 nM, 50 to 500 nM and 100 to 500 nM.
In the same order, the values of `CC(=O)N1c2ccc(-c3cnn(C4CC4)c3)cc2N(c2nn(C)c3c(F)cccc23)C[C@@H]1C` [Example I-179, 1-[(2S)-6-(1-cyclopropyl-1H-pyrazol-4-yl)-4-(7-fluoro-1-methyl-1H-indazol-3-yl)-2-methyl-1,2,3,4-tetrahydroquinoxalin-1-yl]ethan-1-one] are 100 to 1000 nM, under 50 nM and 100 to 500 nM.
Consider `CC(=O)N1c2ccc(-c3cnn(C4CCCS(=O)(=O)C4)c3)cc2N(C(=O)OC(C)C)C[C@@H]1C` (stereo partly drawn) [Example I-1311], for which the IC50 lay within 100 to 1000 nM on BRD4 BD1, 50 to 500 nM at BRD4 BD2 and 100 to 500 nM with MV4-11 cells.
